Experimental data as given in PMC10244169, “Psychedelics promote plasticity by directly binding to BDNF receptor TrkB” (Nature Neuroscience, 2023).

Key:
TrkB [1] = assay: Total TrkB expression in PFC and hippocampus after single LSD injection; format: in vivo, mouse; conditions: PFC or hippocampus, WT or Y433F^+/− mice
Method: (§1) The phosphorylation of TrkB (pY816) and interaction with PLCγ1 were assessed by enzyme-linked immunosorbent assay (ELISA) as previously described[11],[80],[81] with minor modifications. Briefly, white 96-well plates (PerkinElmer, OptiPlate 96F-HB) were precoated with goat anti-TrkB (R&D systems, AF1494; 1:500, overnight, 4 °C) antibody in carbonate buffer (pH 9.8) and blocked with 3% BSA in PBS with 0.1% Tween-20 (PBS-T) for 2 h at room temperature. […] Samples were incubated overnight at 4 °C, and 24 h later plates were washed with PBS-T and incubated with either rabbit anti-phospho-TrkB(Tyr816) (Cell Signaling Technology, 4168S; 1:2,000), rabbit anti-PLCγ1 (Cell Signaling Technologies, 5690S; 1:2,000) or rabbit anti-Trk (Cell Signaling Technologies, 92991; 1:2,000) antibodies overnight at 4 °C. After washing with PBS-T, plates were incubated with HRP-conjugated goat anti-rabbit (Bio-Rad, 170–5046; 1:5,000, 1 h, room temperature) antibody, followed by more washing with PBS-T. Finally, the chemiluminescent signal was read after brief incubation with Pierce ECL substrate (Thermo Fisher Scientific, 32106). Luminescence from blank wells that contained all reagents but the sample lysates was used to determine background signal.

TrkB S440A = biological target: T1, TrkB S440A (Rattus norvegicus, UniProt Q63604, S440A); assay: ^3H-LSD saturation binding, TrkB mutant
T1 construct: expressed in transfected cells; host or cells: HEK293T
T1 sequence (Q63604 32-821 S440A): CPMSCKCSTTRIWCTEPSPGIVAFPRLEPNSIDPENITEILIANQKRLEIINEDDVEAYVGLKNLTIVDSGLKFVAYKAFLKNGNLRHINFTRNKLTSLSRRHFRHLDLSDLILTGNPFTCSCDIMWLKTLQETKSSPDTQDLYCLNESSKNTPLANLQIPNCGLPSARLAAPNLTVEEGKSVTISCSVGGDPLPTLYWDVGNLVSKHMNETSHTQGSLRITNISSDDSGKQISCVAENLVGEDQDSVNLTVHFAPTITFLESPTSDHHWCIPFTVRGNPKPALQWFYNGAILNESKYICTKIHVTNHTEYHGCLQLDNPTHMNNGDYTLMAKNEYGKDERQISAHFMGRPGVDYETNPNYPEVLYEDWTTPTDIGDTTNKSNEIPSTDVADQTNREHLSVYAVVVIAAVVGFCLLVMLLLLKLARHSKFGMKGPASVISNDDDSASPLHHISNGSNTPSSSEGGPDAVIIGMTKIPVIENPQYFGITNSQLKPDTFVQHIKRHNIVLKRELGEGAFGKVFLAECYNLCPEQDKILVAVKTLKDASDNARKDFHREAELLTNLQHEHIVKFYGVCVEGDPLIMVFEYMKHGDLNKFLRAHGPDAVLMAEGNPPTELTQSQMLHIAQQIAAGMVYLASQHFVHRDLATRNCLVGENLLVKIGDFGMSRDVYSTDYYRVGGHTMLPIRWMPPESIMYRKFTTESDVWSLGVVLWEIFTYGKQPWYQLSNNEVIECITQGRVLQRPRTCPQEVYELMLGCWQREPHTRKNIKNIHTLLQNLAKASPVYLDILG

TrkB pY816 = assay: ELISA of TrkB phosphorylation (pY816) in neuronal cultures; format: cell-based, rat; conditions: cortical and hippocampal cultures
Method: as §1

primary visual cortex = assay: Ocular dominance plasticity after monocular deprivation; format: in vivo, mouse; conditions: ext fig 7b
Method: Female and male mice were 17 weeks old at the time of monocular deprivation, since the physiological critical period in the binocular region of the visual cortex is closed by then[85]. […] Briefly, mice were injected with an anesthetic mixture containing 0.05 mg kg^−1 fentanyl (Hameln), 5 mg kg^−1 midazolam (Hameln) and 0.5 mg kg^−1 medetomidine (Orion Pharma) diluted in saline. Eyes were protected from drying with eye-protective gel (Alcon), and the head was shaved and fixed in a stereotaxic frame with a heating pad maintained at 37 °C. A mixture of lidocaine and adrenaline (Orion Pharma) was applied locally on the head, and the scalp above the visual cortex was cut. The periosteum was removed gently, and the skull was rapidly cleaned from fat with acetone. The surface of the skull was covered with a thin layer of cyanoacrylate glue (Henkel, Loctite 401), followed by two layers of acryl, obtained by mixing colorless acrylic powder (EUBECOS) with liquid methacrylate (Densply). […] The signal was recorded from one eye at a time, with the other eye covered by a patch. […] The OD score as (C − I)/(C + I) was calculated, and the ocular dominance index (ODI) was determined as the mean of the OD score for all responsive pixels, as described by Cang et al.[89].
TrkB:PLCγ1 = biological target: T2, TrkB:PLCγ1 (Rattus norvegicus, UniProt Q63604); assay: ELISA of TrkB:PLCγ1 interaction in neuronal cultures; format: cell-based
T2 construct: endogenous in cells; host or cells: rat cortical neuronal cultures (E18, DIV21)
T2 sequence (Q63604 32-821): as the sequence (Q63604 32-821 S440A) above, with A409S counted along it
Method: as §1

mouse TrkB = biological target: T3, mouse TrkB (Mus musculus, UniProt P15209); assay: ^3H-LSD saturation binding to immunoprecipitated TrkB
T3 construct: from tissue; host or cells: mouse embryo (E18) brain
T3 sequence (P15209 32-821): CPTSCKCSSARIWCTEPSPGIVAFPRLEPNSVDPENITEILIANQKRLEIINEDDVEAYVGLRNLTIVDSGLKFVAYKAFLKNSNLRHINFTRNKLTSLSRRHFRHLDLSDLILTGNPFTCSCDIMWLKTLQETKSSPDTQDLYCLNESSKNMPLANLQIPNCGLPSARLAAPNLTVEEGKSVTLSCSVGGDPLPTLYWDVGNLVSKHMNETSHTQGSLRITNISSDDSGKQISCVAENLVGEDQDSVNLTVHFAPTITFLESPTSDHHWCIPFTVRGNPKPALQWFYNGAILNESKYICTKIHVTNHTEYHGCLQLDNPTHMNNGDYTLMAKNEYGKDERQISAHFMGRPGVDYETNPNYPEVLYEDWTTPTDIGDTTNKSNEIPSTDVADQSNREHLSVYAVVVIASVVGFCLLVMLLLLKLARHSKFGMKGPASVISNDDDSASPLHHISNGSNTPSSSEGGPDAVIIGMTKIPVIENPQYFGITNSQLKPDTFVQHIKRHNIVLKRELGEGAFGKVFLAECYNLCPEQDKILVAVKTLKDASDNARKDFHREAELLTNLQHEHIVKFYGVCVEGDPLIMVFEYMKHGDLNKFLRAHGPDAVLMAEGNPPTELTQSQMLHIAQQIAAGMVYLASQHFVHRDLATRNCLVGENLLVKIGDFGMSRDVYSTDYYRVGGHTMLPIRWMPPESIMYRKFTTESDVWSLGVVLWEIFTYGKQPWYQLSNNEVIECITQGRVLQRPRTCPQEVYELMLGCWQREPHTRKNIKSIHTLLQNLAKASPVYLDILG
Method: (§2) Binding assays were performed as previously described with minor modifications. […] Samples from mouse embryo (E18) brains were also lysed, vortexed, sonicated and centrifuged for binding assays. Plates were then washed with PBS. […] For the competition binding assays with biotinylated R,R-HNK, the amino-biotinylation of R,R-HNK was performed using a commercial kit (Thermo Scientific, EZ-Link NHS-PEG4 Biotinylation Kit, 21455) and the reaction monitored by MS. A mixture of biotinylated R,R-HNK (10 µM) and unlabeled compounds (1 pM to 10 µM) in PBS was added to the 96-well plates containing the immunoprecipitated TrkB and incubated for 1 h at room temperature. […] Luminescence was determined via streptavidin conjugated with horseradish peroxidase (HRP; Thermo Fisher Scientific, 21126; 1:5,000, 1 h at room temperature) in reaction with the Pierce ECL substrate (Thermo Fisher Scientific, 32106). Luminescence from blank wells that contained all reagents but the sample lysates was used to determine nonspecific binding. To obtain the binding curves, results from binding assays were fitted to the equation of specific binding with Hill slope from GraphPad Prism 9.2. To calculate koff values, results were fitted to the equation of dissociation of one phase exponential decay from GraphPad Prism 9.2.

TrkB [2] = assay: Western blot of TrkB protein expression in N2a cells; format: cell-based; conditions: WT and Y433F^+/−
Method: In a separate set of experiments to examine the effect of 5-HT2A activation, M100907 (100 nM) was administered as a 10 min pretreatment and remained in the medium for the rest of the experiment. Next, cells were lysed and centrifuged. […] The co-immunoprecipitation was carried out as previously described[11],[23],[24] with minor modifications. Briefly, Magnetic Dynabeads Protein G (Invitrogen, 10004D) were coated with anti-TrkB antibody (R&D Systems, AF1494) at 200 ng of antibody per 1 µl of beads in rotation (2 h, 4 °C). Finally, lysates were mixed with the coated beads (100 µg of total protein per 15 µl of beads) and incubated in rotation (overnight, 4 °C).
Proteins were separated according to their molecular weight by SDS–PAGE and transferred to a polyvinylidene fluoride membrane. Membranes were incubated with the following primary antibodies (all 1:1,000 in 3% BSA in TBS-T, overnight, 4 °C): anti-TrkB (R&D Systems, AF1494), anti-β-actin (Sigma-Aldrich, A1978), anti-phospho-mTOR (Cell Signaling Technology, 5536S), anti-phospho-p44/42 MAPK (Erk1/2) (Cell Signaling Technology, 9106S), anti-mTOR (Cell Signaling Technology, 2972S) and anti-p44/42 MAPK (Erk1/2) (Cell Signaling Technology, 9102S). […] Protein bands were visualized using enhanced chemiluminescent substrate (Thermo Scientific, 32132, ECL Plus) and imaged with a charge-coupled device camera (G:BOX, Syngene).

rat TrkB (WT) = biological target: T4, rat TrkB (WT) (Rattus norvegicus, UniProt Q63604); assay: ^3H-LSD saturation binding to TrkB immunoprecipitated from HEK293T lysates
T4 construct: expressed in transfected cells; host or cells: HEK293T
T4 sequence (Q63604 32-821): as the sequence (Q63604 32-821 S440A) above, with A409S counted along it
Method: as §2

human TrkB = biological target: T5, human TrkB (Homo sapiens, UniProt Q16620); assay: as above
T5 construct: GFP; expressed in transfected cells; host or cells: HEK293T
T5 sequence (Q16620 32-822): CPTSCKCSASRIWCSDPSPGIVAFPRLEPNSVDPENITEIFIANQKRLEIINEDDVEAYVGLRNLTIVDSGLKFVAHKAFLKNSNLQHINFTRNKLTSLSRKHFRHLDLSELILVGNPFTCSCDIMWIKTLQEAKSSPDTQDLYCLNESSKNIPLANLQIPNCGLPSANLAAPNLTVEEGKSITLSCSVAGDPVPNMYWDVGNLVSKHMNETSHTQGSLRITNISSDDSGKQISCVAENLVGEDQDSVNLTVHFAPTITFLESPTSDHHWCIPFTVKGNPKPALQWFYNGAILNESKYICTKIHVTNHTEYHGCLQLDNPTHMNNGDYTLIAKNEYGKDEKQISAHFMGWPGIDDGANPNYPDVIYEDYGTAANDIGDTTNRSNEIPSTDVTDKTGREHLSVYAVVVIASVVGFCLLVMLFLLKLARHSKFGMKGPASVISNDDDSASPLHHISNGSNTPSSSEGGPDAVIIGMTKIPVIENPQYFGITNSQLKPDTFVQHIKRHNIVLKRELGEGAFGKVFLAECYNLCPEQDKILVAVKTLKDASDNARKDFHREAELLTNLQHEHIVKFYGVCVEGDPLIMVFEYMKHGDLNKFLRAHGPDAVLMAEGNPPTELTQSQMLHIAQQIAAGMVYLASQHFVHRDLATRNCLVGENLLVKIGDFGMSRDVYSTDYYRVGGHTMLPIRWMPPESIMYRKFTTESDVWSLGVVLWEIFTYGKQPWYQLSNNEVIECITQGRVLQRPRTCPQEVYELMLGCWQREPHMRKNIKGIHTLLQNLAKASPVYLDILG
Method: as §2

TrkB Y433F = biological target: T6, TrkB Y433F (Rattus norvegicus, UniProt Q63604, Y433F); assay: Radioligand dissociation binding of ^3H-LSD; conditions: ext fig 1c, n=3
T6 construct: expressed in transfected cells; host or cells: HEK293T
T6 sequence (Q63604 32-821 Y433F): as the sequence (Q63604 32-821 S440A) above, with Y402F, A409S counted along it
Method: as §2

TrkB WT = biological target: T7, TrkB WT (Rattus norvegicus, UniProt Q63604); assay: Radioligand dissociation binding of ^3H-LSD; conditions: ext fig 1c, n=3
T7 construct: expressed in transfected cells; host or cells: HEK293T
T7 sequence (Q63604 32-821): as the sequence (Q63604 32-821 S440A) above, with A409S counted along it
Method: as §2

TrkA.TM chimera = assay: ^3H-LSD saturation binding, TrkB with TMD of TrkA; conditions: TMD of TrkB replaced by that of TrkA
Method: as §2

CCN(CC)C(=O)C1C=C2c3cccc4[nH]cc(c34)CC2N(C)C1 (centres unmarked) [LSD, lysergic acid diethylamide]
total TrkB expression (TrkB [1]): remain unaffected
Kd (TrkB S440A): 0.714 nM
Bmax (best-fit, 1a) (TrkB S440A; S440A): 114.7
h (best-fit, 1a) (TrkB S440A; S440A): 1.945
LSD binding (TrkB S440A; S440A mutation): did not influence LSD binding
TrkB phosphorylation (pY816) (TrkB pY816): increases phosphorylation of TrkB tyrosine 816 (pY816)
Mean ± SEM of column B (IOS II) (primary visual cortex; IOS II (second imaging session), n=10 mice): 0.0300 ± 0.02329, n=10
Difference between means (IOS II vs. IOS I) (primary visual cortex; column B IOS II vs. column A IOS I, unpaired t test): -0.1640 ± 0.02794
TrkB interaction with PLCγ1 (TrkB:PLCγ1): increases TrkB interaction with phospholipase C gamma 1 (PLCγ1)
Kd (mouse TrkB): 0.425 ± 0.296 nM
Bmax (mouse TrkB; ^3H-LSD saturation, mouse TrkB): 7.388 ± 0.771 pmol mg^−1 protein
Bmax (specific binding with Hill slope, best-fit) (mouse TrkB; ext fig 1b, TRKB.wt, n=2): 117.1
h (Hill slope, best-fit) (mouse TrkB; ext fig 1b, TRKB.wt, n=2): 0.5552
total TrkB expression (TrkB [2]): No differences in total TrkB expression
Kd (rat TrkB (WT)): 0.656 ± 0.093 nM
h (best-fit, 1a) (rat TrkB (WT); WT, Hill slope): 1.255
Bmax (best-fit, 1a) (rat TrkB (WT); WT, specific binding with Hill slope): 100.9
Bmax (rat TrkB (WT); ^3H-LSD saturation, rat TrkB): 3.053 ± 0.099 pmol mg^−1 protein
Kd (human TrkB): 0.93 ± 0.414 nM
Bmax (human TrkB; ^3H-LSD saturation, human TrkB): 4.028 ± 0.326 pmol mg^−1 protein
Bmax (specific binding with Hill slope, best-fit) (human TrkB; ext fig 1a, TRKB.wt, n=2): 111.1
h (Hill slope, best-fit) (human TrkB; ext fig 1a, TRKB.wt, n=2): 0.4722
K (dissociation, one phase exponential decay) (TrkB Y433F): 0.02402
NS (dissociation, one phase exponential decay) (TrkB Y433F): 6.951
Y0 (dissociation, one phase exponential decay) (TrkB Y433F): 108.1
K (dissociation, one phase exponential decay) (TrkB WT): 0.008532
NS (dissociation, one phase exponential decay) (TrkB WT): 2.667
Y0 (dissociation, one phase exponential decay) (TrkB WT): 110.7
LSD binding (TrkA.TM chimera): completely abolishes LSD binding
